Experimental data published in ChEMBL document CHEMBL5653631, “A Potent and Selective ULK1 Inhibitor Suppresses Autophagy and Sensitizes Cancer Cells to Nutrient Stress” (iScience, 2018).
Blank lines part the entries; values can stand above or below the compound they belong to.

Tests used:
[1] = target: T1, Phosphorylase b kinase gamma catalytic chain, liver/testis isoform (Homo sapiens) (UniProt P15735); experiment: Inhibition of human recombinant PHKg2 at 500 nM in presence of ATP by radiometric assay relative to control
T1 sequence (whole entry): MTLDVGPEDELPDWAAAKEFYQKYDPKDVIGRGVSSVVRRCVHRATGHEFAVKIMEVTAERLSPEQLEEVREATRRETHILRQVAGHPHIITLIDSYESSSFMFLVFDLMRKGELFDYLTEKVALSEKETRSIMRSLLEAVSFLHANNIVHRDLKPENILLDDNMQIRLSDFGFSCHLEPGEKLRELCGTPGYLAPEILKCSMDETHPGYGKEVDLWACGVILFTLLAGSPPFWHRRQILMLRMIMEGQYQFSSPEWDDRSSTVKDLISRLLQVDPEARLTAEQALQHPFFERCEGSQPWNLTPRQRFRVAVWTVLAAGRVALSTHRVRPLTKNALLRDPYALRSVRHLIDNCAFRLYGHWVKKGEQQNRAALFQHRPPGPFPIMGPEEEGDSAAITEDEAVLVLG

[2] = target: Protein kinase C delta type (Homo sapiens) (UniProt Q05655); experiment: Inhibition of human recombinant PKCd at 500 nM related to control ULK1
[3] = target: BDNF/NT-3 growth factors receptor (Homo sapiens) (UniProt Q16620); experiment: Inhibition of human recombinant TRKB at 500 nM in presence of ATP by radiometric assay relative to control
[4] = target: Serine/threonine-protein kinase SIK1 (Homo sapiens) (UniProt P57059); experiment: Inhibition of human recombinant SIK at 15 nM related to control ULK1
[5] = target: T2, Dual specificity protein kinase TTK (Homo sapiens) (UniProt P33981); experiment: Inhibition of human recombinant TTK at 15 nM related to control ULK1
T2 sequence (whole entry): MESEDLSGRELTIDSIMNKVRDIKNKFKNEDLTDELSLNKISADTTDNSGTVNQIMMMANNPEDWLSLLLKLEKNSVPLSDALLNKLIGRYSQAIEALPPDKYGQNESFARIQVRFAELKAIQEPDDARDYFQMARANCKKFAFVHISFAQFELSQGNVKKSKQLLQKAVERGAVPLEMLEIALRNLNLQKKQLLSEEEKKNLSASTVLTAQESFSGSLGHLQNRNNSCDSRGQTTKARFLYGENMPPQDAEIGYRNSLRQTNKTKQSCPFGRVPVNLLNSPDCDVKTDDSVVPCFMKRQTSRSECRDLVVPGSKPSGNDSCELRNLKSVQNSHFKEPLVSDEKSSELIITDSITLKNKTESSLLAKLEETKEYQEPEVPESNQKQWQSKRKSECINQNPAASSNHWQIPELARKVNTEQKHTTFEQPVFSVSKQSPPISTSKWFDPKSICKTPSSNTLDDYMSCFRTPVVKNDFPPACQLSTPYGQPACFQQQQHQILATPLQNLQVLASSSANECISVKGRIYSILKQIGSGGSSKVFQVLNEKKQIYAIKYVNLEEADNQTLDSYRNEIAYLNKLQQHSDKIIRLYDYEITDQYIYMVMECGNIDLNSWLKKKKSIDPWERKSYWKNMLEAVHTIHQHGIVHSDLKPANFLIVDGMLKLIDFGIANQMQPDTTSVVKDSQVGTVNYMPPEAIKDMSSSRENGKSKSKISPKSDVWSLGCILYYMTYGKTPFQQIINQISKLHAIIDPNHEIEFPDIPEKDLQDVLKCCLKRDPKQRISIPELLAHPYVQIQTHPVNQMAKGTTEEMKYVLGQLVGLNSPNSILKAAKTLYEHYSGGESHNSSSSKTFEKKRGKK

[6] = target: Rho-associated protein kinase 2 (Homo sapiens) (UniProt O75116); experiment: Inhibition of human recombinant ROCK2 at 40 nM in presence of ATP by radiometric assay relative to control
[7] = target: T3, Testis-specific serine/threonine-protein kinase 3 (Homo sapiens) (UniProt Q96PN8); experiment: Inhibition of human recombinant TSSK3 at 40 nM in presence of ATP by radiometric assay relative to control
T3 sequence (whole entry): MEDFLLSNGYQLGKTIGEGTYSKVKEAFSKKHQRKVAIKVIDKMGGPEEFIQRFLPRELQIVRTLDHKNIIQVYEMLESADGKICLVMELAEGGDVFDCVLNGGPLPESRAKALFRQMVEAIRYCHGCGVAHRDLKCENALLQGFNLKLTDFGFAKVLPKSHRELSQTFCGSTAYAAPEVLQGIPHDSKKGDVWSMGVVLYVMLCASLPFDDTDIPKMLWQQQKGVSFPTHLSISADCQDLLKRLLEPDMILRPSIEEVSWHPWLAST

[8] = target: Myosin light chain kinase 2, skeletal/cardiac muscle (Homo sapiens) (UniProt Q9H1R3); experiment: Inhibition of human recombinant skMLCK at 40 nM related to control ULK1
[9] = target: T4, Tyrosine-protein kinase ITK/TSK (Homo sapiens) (UniProt Q08881); experiment: Inhibition of human recombinant ITK at 40 nM in presence of ATP by radiometric assay relative to control
T4 sequence (whole entry): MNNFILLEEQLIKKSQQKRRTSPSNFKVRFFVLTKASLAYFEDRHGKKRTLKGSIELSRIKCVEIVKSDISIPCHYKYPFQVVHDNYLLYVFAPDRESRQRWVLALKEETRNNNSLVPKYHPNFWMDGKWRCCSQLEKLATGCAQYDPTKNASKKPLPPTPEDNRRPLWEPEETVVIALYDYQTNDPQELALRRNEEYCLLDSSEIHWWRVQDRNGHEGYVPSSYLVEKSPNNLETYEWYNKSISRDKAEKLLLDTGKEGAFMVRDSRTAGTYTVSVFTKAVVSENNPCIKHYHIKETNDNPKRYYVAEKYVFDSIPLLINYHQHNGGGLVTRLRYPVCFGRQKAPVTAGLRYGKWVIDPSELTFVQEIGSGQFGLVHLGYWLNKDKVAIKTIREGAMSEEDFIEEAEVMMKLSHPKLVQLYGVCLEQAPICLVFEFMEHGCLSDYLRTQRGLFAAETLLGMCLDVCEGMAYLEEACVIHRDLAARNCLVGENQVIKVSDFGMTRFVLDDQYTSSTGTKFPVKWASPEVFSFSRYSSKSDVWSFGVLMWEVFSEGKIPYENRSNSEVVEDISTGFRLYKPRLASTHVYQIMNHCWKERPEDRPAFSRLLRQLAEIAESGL

Myosin light chain kinase 2, skeletal/cardiac muscle (Homo sapiens), sequence (Q9H1R3 whole entry): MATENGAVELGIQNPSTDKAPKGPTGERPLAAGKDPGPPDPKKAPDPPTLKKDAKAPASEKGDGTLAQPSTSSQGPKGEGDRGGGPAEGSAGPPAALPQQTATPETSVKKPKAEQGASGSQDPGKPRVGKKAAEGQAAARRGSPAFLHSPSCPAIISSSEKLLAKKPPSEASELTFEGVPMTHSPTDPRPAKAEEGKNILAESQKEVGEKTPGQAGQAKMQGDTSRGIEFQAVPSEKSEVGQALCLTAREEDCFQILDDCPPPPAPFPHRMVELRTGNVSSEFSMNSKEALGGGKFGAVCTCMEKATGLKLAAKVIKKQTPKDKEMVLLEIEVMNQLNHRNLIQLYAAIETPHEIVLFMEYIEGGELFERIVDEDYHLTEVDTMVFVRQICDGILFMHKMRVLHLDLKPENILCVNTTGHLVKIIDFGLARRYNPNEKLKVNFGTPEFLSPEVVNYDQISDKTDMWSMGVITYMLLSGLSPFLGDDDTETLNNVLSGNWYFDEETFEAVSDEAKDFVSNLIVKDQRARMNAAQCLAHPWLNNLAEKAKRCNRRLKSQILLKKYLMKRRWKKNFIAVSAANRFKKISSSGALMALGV
BDNF/NT-3 growth factors receptor (Homo sapiens), sequence (Q16620 32-822 limits assumed): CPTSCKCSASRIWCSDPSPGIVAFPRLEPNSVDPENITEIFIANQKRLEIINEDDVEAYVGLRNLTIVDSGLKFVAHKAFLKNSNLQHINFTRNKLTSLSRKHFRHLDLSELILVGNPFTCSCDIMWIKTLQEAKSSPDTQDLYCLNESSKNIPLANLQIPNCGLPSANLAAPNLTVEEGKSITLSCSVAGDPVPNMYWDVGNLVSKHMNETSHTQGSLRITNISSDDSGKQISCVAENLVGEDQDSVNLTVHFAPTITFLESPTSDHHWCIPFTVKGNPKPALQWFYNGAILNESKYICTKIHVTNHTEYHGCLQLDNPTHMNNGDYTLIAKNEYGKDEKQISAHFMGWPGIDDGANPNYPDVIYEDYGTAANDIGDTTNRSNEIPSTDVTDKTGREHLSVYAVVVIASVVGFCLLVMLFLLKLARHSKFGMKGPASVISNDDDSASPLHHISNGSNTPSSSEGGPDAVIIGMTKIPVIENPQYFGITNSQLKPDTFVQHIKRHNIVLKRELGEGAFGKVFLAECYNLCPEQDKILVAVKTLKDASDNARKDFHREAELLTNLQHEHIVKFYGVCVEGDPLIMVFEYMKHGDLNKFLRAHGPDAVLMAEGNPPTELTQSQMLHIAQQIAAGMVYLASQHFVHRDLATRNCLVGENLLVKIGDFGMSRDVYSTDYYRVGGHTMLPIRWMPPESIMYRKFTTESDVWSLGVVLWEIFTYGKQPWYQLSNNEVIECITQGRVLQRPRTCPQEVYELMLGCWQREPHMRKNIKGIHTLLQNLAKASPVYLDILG
Serine/threonine-protein kinase SIK1 (Homo sapiens), sequence (P57059 whole entry): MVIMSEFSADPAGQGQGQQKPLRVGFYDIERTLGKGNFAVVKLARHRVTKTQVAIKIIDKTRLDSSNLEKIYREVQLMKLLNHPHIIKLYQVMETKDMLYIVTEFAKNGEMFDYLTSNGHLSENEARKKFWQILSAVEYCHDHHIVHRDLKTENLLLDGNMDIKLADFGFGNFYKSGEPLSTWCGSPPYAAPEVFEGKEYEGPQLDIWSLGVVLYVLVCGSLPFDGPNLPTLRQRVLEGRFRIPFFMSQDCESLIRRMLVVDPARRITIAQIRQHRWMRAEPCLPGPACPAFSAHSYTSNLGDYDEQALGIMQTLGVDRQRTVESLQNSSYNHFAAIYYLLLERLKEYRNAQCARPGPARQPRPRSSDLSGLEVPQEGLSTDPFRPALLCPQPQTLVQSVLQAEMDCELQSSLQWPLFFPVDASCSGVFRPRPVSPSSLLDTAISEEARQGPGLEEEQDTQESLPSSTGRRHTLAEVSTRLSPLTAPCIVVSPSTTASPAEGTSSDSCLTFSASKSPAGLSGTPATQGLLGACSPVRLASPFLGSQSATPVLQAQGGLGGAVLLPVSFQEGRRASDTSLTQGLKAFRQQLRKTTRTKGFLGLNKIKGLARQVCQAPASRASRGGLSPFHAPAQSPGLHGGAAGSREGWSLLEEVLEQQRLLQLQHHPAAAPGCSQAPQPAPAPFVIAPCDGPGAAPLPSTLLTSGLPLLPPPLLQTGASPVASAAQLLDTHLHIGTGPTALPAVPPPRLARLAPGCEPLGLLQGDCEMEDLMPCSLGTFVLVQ
Protein kinase C delta type (Homo sapiens), sequence (Q05655 whole entry, looked up): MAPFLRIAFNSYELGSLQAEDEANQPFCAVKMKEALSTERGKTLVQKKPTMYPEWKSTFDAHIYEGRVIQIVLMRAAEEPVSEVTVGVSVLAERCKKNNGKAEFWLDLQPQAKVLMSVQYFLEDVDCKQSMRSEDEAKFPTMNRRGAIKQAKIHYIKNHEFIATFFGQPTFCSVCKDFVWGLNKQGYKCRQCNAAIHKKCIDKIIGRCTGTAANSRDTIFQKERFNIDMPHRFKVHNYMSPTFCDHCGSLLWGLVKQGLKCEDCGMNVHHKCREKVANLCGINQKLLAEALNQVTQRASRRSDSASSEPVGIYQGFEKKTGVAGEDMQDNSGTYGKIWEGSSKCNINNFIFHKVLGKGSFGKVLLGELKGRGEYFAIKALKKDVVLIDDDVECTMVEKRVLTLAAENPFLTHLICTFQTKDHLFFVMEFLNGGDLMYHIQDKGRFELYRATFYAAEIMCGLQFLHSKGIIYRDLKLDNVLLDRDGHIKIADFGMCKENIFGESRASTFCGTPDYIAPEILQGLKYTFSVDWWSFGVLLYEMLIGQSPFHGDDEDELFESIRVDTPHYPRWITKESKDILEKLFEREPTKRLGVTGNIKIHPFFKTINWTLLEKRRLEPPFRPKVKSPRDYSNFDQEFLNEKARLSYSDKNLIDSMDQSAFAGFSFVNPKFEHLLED
Rho-associated protein kinase 2 (Homo sapiens), sequence (O75116 whole entry, looked up): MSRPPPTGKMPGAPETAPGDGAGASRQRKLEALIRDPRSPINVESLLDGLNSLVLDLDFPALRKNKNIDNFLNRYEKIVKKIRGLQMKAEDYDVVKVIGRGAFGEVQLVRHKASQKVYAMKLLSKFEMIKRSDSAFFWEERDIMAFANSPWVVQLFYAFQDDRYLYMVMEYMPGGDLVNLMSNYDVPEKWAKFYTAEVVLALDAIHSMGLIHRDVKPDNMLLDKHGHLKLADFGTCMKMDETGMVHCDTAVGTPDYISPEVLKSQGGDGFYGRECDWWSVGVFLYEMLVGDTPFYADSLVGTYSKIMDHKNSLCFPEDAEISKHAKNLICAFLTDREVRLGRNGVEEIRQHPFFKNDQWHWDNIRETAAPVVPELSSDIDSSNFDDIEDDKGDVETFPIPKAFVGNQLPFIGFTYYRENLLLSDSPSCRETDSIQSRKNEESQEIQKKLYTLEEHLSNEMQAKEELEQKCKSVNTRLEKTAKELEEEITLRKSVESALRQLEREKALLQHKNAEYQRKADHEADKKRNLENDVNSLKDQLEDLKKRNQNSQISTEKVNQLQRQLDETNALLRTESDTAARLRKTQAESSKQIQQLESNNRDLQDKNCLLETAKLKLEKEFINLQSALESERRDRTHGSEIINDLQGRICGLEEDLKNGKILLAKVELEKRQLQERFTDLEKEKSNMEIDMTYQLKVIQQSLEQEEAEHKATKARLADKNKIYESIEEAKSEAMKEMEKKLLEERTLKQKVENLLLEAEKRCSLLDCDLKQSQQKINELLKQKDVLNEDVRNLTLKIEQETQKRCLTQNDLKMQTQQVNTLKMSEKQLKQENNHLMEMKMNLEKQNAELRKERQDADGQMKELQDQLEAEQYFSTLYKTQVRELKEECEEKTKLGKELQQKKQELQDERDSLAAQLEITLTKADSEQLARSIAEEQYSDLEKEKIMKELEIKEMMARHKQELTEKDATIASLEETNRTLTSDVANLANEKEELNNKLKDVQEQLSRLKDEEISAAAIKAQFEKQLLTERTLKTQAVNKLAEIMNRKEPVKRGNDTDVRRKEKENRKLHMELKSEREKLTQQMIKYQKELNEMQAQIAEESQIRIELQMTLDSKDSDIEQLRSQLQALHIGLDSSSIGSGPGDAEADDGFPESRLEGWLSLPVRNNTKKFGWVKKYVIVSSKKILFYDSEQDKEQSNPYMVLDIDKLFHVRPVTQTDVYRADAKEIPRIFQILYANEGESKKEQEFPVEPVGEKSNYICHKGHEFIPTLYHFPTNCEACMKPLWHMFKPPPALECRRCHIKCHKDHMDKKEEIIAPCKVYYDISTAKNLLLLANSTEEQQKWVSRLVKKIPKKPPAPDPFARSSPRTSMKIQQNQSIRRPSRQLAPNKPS

inhibition [1]: 0%
fold change (FC) [2]: 0.04
inhibition [3]: 48%
SMILES: CNC(=O)c1ccccc1Oc1nc(Nc2cc(OC)c(OC)c(OC)c2)ncc1Br

fold change (FC) [4]: 0.84
fold change (FC) [5]: 0.25
SMILES: CC(C)[C@H](NC(=O)c1cc(-c2cnn3cc(-c4ccc(OCCN5CCCCC5)cc4)cnc23)cs1)C(F)(F)F

inhibition [6]: 2%
inhibition [7]: 0%
fold change (FC) [8]: 0
inhibition [9]: 0%
SMILES: O=C(N[C@@H](C1CC1)C(F)(F)F)c1cc(-c2cnn3cc(-c4ccc(F)cc4)cnc23)cs1
